From patent publication US20180099931A1 (AbbVie S.à.r.l., priority 2016, published 2018)
Read-outs that look alike come from different tables or passages of the source.

Target: T1, F508delCFTR (Homo sapiens, UniProt P13569, DEL508-508)
T1 construct: expressed in transfected cells; host or cells: CFBE41o- human lung-derived epithelial cells (CFBE4lo-F508delCFTR-HRP), doxycycline-inducible
Experiment: Cell Surface Expression-Horse Radish Peroxidase (CSE-HRP) Assay;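 as to Maximum % activity (with co-corrector): co-corrector and positive control are both the same reference corrector at 2 µM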;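 as to Maximum % activity (without co-corrector): percent of the 2 µM on-plate positive control corrector response above DMSO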
Assay type: cell-based
Settings: for Maximum % activity (with co-corrector) / Emax: maximum at any tested concentration, normalized to on-plate positive control; for Emax: read-out: Maximum % activity (without co-corrector)

[1] = test compound without co-corrector, read-out: EC50 (without co-corrector)
[2] = with co-corrector (2 μM of 3-[(2R,4R)-4-({[1-(2,2-difluoro-1,3-benzodioxol-5-yl)cyclopropyl]carbonyl}amino)-7-methoxy-3,4-dihydro-2H-chromen-2-yl]benzoic acid), read-out: EC50 (with co-corrector)
[3] = CSE-HRP, test compound without co-corrector, read-out: EC50 (without co-corrector)
[4] = CSE-HRP, with co-corrector (2 μM of 3-[(2R,4R)-4-({[1-(2,2-difluoro-1,3-benzodioxol-5-yl)cyclopropyl]carbonyl}amino)-7-methoxy-3,4-dihydro-2H-chromen-2-yl]benzoic acid), read-out: EC50 (with co-corrector)
[5] = CSE-HRP, with co-corrector (2 μM)
[6] = test compound without co-corrector
[7] = with co-corrector (2 μM of 3-[(2R,4R)-4-({[1-(2,2-difluoro-1,3-benzodioxol-5-yl)cyclopropyl]carbonyl}amino)-7-methoxy-3,4-dihydro-2H-chromen-2-yl]benzoic acid)

T1 sequence (P13569 with tags, fused parts or gaps DEL508-508): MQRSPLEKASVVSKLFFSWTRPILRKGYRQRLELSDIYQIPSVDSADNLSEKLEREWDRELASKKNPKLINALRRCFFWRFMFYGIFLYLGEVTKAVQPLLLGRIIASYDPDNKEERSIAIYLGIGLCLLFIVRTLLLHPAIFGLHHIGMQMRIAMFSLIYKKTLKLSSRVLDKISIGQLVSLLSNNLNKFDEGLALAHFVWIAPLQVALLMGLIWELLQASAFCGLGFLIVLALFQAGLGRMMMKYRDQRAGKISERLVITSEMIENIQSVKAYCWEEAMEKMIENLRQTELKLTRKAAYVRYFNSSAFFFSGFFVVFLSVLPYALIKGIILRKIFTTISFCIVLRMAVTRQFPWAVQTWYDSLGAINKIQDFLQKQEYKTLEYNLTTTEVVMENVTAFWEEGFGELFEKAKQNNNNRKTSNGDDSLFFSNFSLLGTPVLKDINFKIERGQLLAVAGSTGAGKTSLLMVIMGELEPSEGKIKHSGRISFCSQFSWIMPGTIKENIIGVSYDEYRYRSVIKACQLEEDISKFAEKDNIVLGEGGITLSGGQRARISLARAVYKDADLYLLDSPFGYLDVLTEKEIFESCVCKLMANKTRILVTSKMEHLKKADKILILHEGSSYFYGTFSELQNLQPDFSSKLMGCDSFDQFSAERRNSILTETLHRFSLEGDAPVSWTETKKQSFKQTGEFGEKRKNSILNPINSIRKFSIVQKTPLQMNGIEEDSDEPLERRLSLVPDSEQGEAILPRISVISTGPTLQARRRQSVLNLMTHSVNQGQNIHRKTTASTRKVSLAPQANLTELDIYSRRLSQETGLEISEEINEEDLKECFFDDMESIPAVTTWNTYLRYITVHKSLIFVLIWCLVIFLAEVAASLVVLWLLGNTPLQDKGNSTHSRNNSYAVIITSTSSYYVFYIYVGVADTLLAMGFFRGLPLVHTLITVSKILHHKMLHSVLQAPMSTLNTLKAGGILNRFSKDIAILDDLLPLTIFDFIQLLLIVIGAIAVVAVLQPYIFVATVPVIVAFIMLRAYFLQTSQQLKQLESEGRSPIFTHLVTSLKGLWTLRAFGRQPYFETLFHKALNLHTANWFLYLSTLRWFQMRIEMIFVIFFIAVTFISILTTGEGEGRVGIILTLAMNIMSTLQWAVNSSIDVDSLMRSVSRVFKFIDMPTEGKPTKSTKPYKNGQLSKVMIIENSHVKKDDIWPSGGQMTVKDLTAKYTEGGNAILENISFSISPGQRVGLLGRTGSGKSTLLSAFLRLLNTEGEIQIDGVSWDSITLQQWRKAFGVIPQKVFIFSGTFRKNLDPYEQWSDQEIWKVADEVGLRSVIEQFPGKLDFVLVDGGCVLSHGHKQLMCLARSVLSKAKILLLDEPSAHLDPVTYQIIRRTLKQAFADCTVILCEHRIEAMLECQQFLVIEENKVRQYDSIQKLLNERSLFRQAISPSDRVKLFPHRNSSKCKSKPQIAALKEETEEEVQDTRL

SMILES | EC50 [1] [nM] | EC50 [2] [nM] | Maximum % activity (with co-corrector) (with co-corrector (2 μM)) | Emax (without co-corrector) [%] | EC50 [3] [nM] | EC50 [4] [nM] | Maximum % activity (with co-corrector) [5] | Emax (CSE-HRP, without co-corrector) [%] | Emax [6] [%] | Maximum % activity (with co-corrector) [7]
CC(C)COc1ccccc1CN[C@@H]1[C@@H](C(C)(C)C)[C@H](C(=O)O)N(C(=O)C2CCCCC2)[C@@H]1c1ccccc1 (racemic) [II-5] |  |  |  |  | 1000 to 10000 | 1000 to 10000 | +++ (≥350) | < 100 |  | 
CCN(C)S(=O)(=O)NC(=O)[C@H]1[C@H](C(C)(C)C)[C@@H](Nc2cc(C(F)(F)F)cc(C)n2)[C@@H](c2ccccc2)N1C(=O)C1CCCCC1 (racemic) [III-55] | > 10000 | 1000 to 10000 |  |  |  |  |  |  | < 100 | ++ (≥150 and <350)
COc1ncc(C2CCC2)cc1CN[C@H]1[C@H](C(C)(C)C)[C@@H](C(=O)O)N(C(=O)[C@@H]2CCCCO2)[C@H]1c1ccccc1C [II-585] | 1000 to 10000 | < 1000 |  |  |  |  |  |  | > 200 | +++ (≥350)
COc1ccc(C2(C(F)(F)F)CC2)cc1CN[C@H]1[C@H](C(C)(C)C)[C@@H](C(=O)O)N(C(=O)C2CCCCC2)[C@H]1c1ccccc1 [Example 33, (2S,3S,4S,5S)-3-tert-butyl-1-(cyclohexanecarbonyl)-4-[({2-methoxy-5-[1-(trifluoromethyl)cyclopropyl]phenyl}methyl)amino]-5-phenylpyrrolidine-2-carboxylic acid] | 1000 to 10000 | < 1000 | +++ (≥350) | > 200 |  |  |  |  |  | 
COc1nc(C(C)(C)C)ccc1CN[C@H]1[C@H](C(C)(C)C)[C@@H](C(=O)O)N(C(=O)C2CCCCC2)[C@H]1c1ccccc1F [II-525] | 1000 to 10000 | 1000 to 10000 |  |  |  |  |  |  | 100 to 200 | +++ (≥350)
Cc1cc(C(F)(F)F)nc(N[C@@H]2[C@@H](C(C)(C)C)[C@H](C(=O)O)N(C(=O)OC(C)C)[C@@H]2c2ccccc2)n1 (racemic) [Example I-13] | 1000 to 10000 | 1000 to 10000 | ++ (≥150 and <350) | < 100 |  |  |  |  |  | 
COc1cc(C(F)(F)F)ccc1CN[C@@H]1[C@@H](C(C)(C)C)[C@H](C(=O)O)N(C(=O)C2CCCOC2)[C@@H]1c1ccccc1N(C)C (mixture of isomers) [II-22] |  |  |  |  | 1000 to 10000 | 1000 to 10000 | +++ (≥350) | 100 to 200 |  | 
CCOc1ccc(Br)cc1CN[C@H]1[C@H](C(C)(C)C)[C@@H](C(=O)O)N(C(=O)OC(C)C)[C@H]1c1cccnc1N1CCC1 [Example I-274] |  |  |  |  | 1000 to 10000 | 1000 to 10000 | +++ (≥350) | 100 to 200 |  | 
CC(C)(C)[C@@H]1[C@@H](NCc2ccccc2C#N)[C@@H](c2ccccc2)N(C(=O)C2CCCCC2)[C@H]1C(=O)O (racemic) [III-83] | > 10000 | > 10000 |  |  |  |  |  |  | < 100 | + (<150)
COc1cc(C)ccc1CN[C@H]1[C@H](C(C)(C)C)[C@@H](C(=O)O)N(C(=O)C2CCCCC2)[C@H]1c1cccnc1OC [II-138] |  |  |  |  | 1000 to 10000 | 1000 to 10000 | +++ (≥350) | 100 to 200 |  | 
CO[C@H](C(=O)N1[C@H](c2cccnc2N(C)C)[C@H](Nc2cc(C(F)(F)F)cc(C)n2)[C@@H](C(C)(C)C)[C@@H]1C(=O)O)c1ccccc1 (racemic) [III-90] | > 10000 | 1000 to 10000 |  |  |  |  |  |  | < 100 | + (<150)
COc1cccc(S(=O)(=O)N2[C@H](C(=O)O)[C@@H](C(C)(C)C)[C@H](NCc3cc(C4CCC4)cnc3OC)[C@@H]2c2ccccc2C(C)C)n1 [Example I-303] |  |  |  |  | 1000 to 10000 | 1000 to 10000 | +++ (≥350) | < 100 |  | 
COc1cc(Cl)ccc1CN[C@H]1[C@H](C(C)(C)C)[C@@H](C(=O)O)N(C(=O)C2CCCCC2)[C@H]1c1ncccc1OC (racemic) [III-143] | > 10000 | > 10000 | + (<150) |  |  |  |  |  | < 100 | 
COc1ccc(C23CC(C2)C3)cc1CN[C@H]1[C@H](C(C)(C)C)[C@@H](C(=O)O)N(C(=O)C2CCCCC2)[C@H]1c1ccccc1OC [II-484] | < 1000 | < 1000 |  |  |  |  |  |  | 100 to 200 | +++ (≥350)
COc1ncc(C2CCCCC2)cc1CN[C@H]1[C@H](C(C)(C)OC)[C@@H](C(=O)O)N(C(=O)C2CCCCC2)[C@H]1c1ccccc1 [II-252] |  |  |  |  | < 1000 | < 1000 | +++ (≥350) | > 200 |  | 
Cc1cc(C(F)(F)F)cc(N[C@H]2[C@H](C(C)(C)C)[C@@H](C(=O)O)N(C(=O)C3CCCC(F)(F)C3)[C@H]2c2cccnc2N(C)C)n1 (stereo partly drawn) [II-503] | 1000 to 10000 | 1000 to 10000 |  |  |  |  |  |  | < 100 | +++ (≥350)
COc1ccc(C23CC(C2)C3)cc1CN[C@H]1[C@H](C(C)(C)C)[C@@H](C(=O)O)N(C(=O)[C@H]2CCCC(F)(F)C2)[C@H]1c1ccccc1 [II-509] | < 1000 | < 1000 |  |  |  |  |  |  | > 200 | +++ (≥350)

Now from value to molecule:

EC50 [1] [nM] | EC50 [2] [nM] | Maximum % activity (with co-corrector) (with co-corrector (2 μM)) | Emax (without co-corrector) [%] | EC50 [3] [nM] | EC50 [4] [nM] | Maximum % activity (with co-corrector) [5] | Emax (CSE-HRP, without co-corrector) [%] | Emax [6] [%] | Maximum % activity (with co-corrector) [7] | SMILES
1000 to 10000 | 1000 to 10000 | +++ (≥350) | > 200 |  |  |  |  |  |  | COc1ccc(C(C)(C)C)cc1CN[C@H]1[C@H](C(C)(C)C)[C@@H](C(=O)O)N(C(=O)[C@@H]2C[C@H]3CC[C@@H]2O3)[C@H]1c1ccccc1 (relative stereo) [Example I-241]
 |  |  |  | 1000 to 10000 | 1000 to 10000 | +++ (≥350) | 100 to 200 |  |  | COc1ccc(C(C)(C)C)cc1CN[C@H]1[C@H](C(C)(C)C)[C@@H](C(=O)O)N(C(=O)C2Cc3ccccc3O2)[C@H]1c1ccccc1 (single isomer, unassigned) [II-272]
 |  |  |  | 1000 to 10000 | 1000 to 10000 | +++ (≥350) | > 200 |  |  | COc1ccc(C(C)(C)C)cc1CN[C@H]1[C@H](C(C)(C)C)[C@@H](C(=O)O)N(C(=O)c2c(C)nn(-c3ccccc3)c2C)[C@H]1c1ccccc1 [II-229]
1000 to 10000 | < 1000 | +++ (≥350) | > 200 |  |  |  |  |  |  | COc1ccc(C(F)(F)F)cc1CN[C@H]1[C@H](C(C)(C)C)[C@@H](C(=O)O)N(C(=O)[C@H](OC)c2ccccc2)[C@H]1c1ccccc1 [Example I-20]
1000 to 10000 | 1000 to 10000 | ++ (≥150 and <350) |  |  |  |  |  | < 100 |  | COc1cc(C(F)(F)F)ccc1CN[C@@H]1[C@@H](C(C)(C)C)[C@H](C(=O)O)N(C(=O)C(C)c2ccccc2)[C@@H]1c1ccccc1 (single isomer, unassigned) [III-112]
1000 to 10000 | 1000 to 10000 | +++ (≥350) | < 100 |  |  |  |  |  |  | COc1ccc(C(F)(F)F)cc1CN[C@H]1[C@H](C(C)(C)C)[C@@H](C(=O)O)N(C(=O)[C@@H]2CCCC(F)(F)C2)[C@H]1c1ccccc1 [Example I-124]
 |  |  |  | 1000 to 10000 | 1000 to 10000 | +++ (≥350) | 100 to 200 |  |  | COCc1ccc(OC)c(CN[C@H]2[C@H](C(C)(C)C)[C@@H](C(=O)O)N(C(=O)C3CCCCC3)[C@H]2c2ccccc2)c1 [II-242]
1000 to 10000 | < 1000 | +++ (≥350) |  |  |  |  |  | 100 to 200 |  | COc1ccc(C(C)(C)C)cc1CN[C@H]1[C@H](C(C)(C)C)[C@@H](C(=O)O)N(C(=O)c2cnn(-c3cccc(C)c3)c2C(C)C)[C@H]1c1ccccc1 [III-194]
 |  |  |  | 1000 to 10000 | 1000 to 10000 | +++ (≥350) | > 200 |  |  | COc1ccc(C(C)(C)C)cc1CN[C@H]1[C@H](C(C)(C)C)[C@@H](C(=O)O)N(C(=O)C2CC3C=CC2C3)[C@H]1c1ccccc1 (stereo partly drawn) [II-211]
 |  |  |  | 1000 to 10000 | 1000 to 10000 | +++ (≥350) | 100 to 200 |  |  | COc1ccc(C(C)(C)C)cc1CN[C@H]1[C@H](C(C)(C)C)[C@@H](C(=O)O)N(C(=O)CC2CCOc3ccccc32)[C@H]1c1ccccc1 (stereo partly drawn) [II-213]
 |  |  |  | 1000 to 10000 | < 1000 | +++ (≥350) | 100 to 200 |  |  | COc1ccc(C(C)(C)C)cc1CN[C@H]1[C@H](C(C)(C)C)[C@@H](C(=O)O)N(C(=O)Cc2cccc(C)c2)[C@H]1c1ccccc1 [II-203]
> 10000 | 1000 to 10000 | ++ (≥150 and <350) |  |  |  |  |  | < 100 |  | COc1ccc(C(F)(F)F)cc1CN[C@@H]1[C@@H](C(C)(C)C)[C@H](C(=O)O)N(C(=O)[C@H](OC)c2ccccc2)[C@@H]1c1ccccc1N(C)C [III-98]
< 1000 | < 1000 | +++ (≥350) | > 200 |  |  |  |  |  |  | COc1ccc(C(C)(C)C)cc1CN[C@H]1[C@H](C(C)(C)C)[C@@H](C(=O)O)N(C(=O)C2CCCCC2)[C@H]1c1ccccc1 [Example 7, (2S,3S,4S,5S)-3-tert-butyl-4-{[(5-tert-butyl-2-methoxyphenyl)methyl]amino}-1-(cyclohexanecarbonyl)-5-phenylpyrrolidine-2-carboxylic acid]
